Test results taken from patent publication US7223793B2, “Phenolic acid derivatives and composition for preventing or treating blood lipid level-related diseases comprising the same” (Bionutrigen Co., Ltd., priority 2001, dated 2007).
Marks after values point to notes of the source that are not given here.

Assays:
[1] = system: New Zealand White rabbits; assay: Fatty streak in the main artery of cholesterol-fed rabbits (Experimental Example 2); format: in vivo, rabbit; conditions: 8 weeks; for Proportion of stained region (fatty streak region) per unit area of the main artery: 1% cholesterol + RC4 diet, lovastatin 1 mg/kg or BN30028 0.05 wt %, Oil Red O, average ± standard deviation; for Proportion of the fatty streak region compared to the control group / Arterial endothelium, macrophage-lipid complex / atherosclerotic plaque (photographs): 1% cholesterol diet; for Arterial endothelium, macrophage-lipid complex / atherosclerotic plaque (photographs): FIGS. 1a-1c
Protocol: The rabbits raised in Step 1 were sacrificed and their chests were incised. The incision was performed downward to the diaphragm along the aortic arch and the fat surrounding the main artery was removed. The main artery was incised in the middle along the longitudinal axis from the second aortic intercostal artery anastomoses to the seventh aortic intercostal artery anastomoses and fixed with 10% neutral buffered formalin for 24 hours. Then, the incised main artery was pinned to a dish for staining of fatty streaks according to the method of Esper, E., et al. (J. Lab. Clin. Med., 121, 103-110 (1993)). The staining carried out by washing the artery three times with propylene glycol for 2 minutes respectively. The artery was stained for 30 minutes with a saturated solution of Oil Red O (ORO, Sigma Co.) dissolved in propylene glycol. Thereafter, the artery was washed twice with 85% propylene glycol for 3 minutes respectively to remove the remaining staining solution and, then once with physiological saline. The artery was photographed and the photograph was traced. The proportion (%) of stained region (fatty streak region) per unit area of the main artery was determined with an image analyzer (LEICA, Q-600, Germany). The significant differences between the test groups were tested by student t-test using Microsoft excel (version 7.0) program

ICR mice = assay: Acute oral toxicity in mice (Experimental Example 5); format: in vivo
Protocol: The toxicity of orally administered BN30028 was tested as follows. Four-week-old specific pathogen-free ICR mice, 12 female mice and 12 male mice, were kept in a room under conditions of 22±3° C., 55±10% relative humidity and 12L/12D photoperiod. The mice was acclimated for one week before using in experiment. Fodder (Cheiljedang Co., mouse and rat fodder) and water were sterilized and freely fed to the mice.
BN30028 was dissolved in 0.5% Tween 80 to a concentration of […] and the solution was orally administered to the mice in an amount of 0.2 mL (1 g/kg), 0.4 mL (2 g/kg) or 0.8 mL (4 g/kg) per 20 g of mouse body weight. The solution was administered once for the 1 g/kg and 2 g/kg groups and twice for the 4 g/kg group. […] Also, on the 7th day, the mice were sacrificed and the internal organs were visually examined. From the day of the administration, the weight changes of the animals were recorded every other day to examine the effect of BN30028 on the reduction of body weight of animals.

COC(=O)C(Cc1ccccc1)NC(=O)CCc1ccc(O)c(O)c1 (centres unmarked) [BN30028, 2-[3-(3,4-dihydroxyphenyl)propionylamino]-3-phenyl propionic acid methyl ester]
Proportion of stained region (fatty streak region) per unit area of the main artery [1]: 16.1 ± 9.6^b %
Proportion of the fatty streak region compared to the control group [1]: significantly reduced
Arterial endothelium, macrophage-lipid complex / atherosclerotic plaque (photographs) [1]: clean
Body weight change (ICR mice; oral 1 g/kg, 2 g/kg and 4 g/kg, 7 days after the administration): normal weight increase without any weight loss
LD50 (ICR mice; orally administered, female and male mice): more than 4 g/kg body weight

CC[C@H](C)C(=O)O[C@H]1C[C@@H](C)C=C2C=C[C@H](C)[C@H](CC[C@@H]3C[C@@H](O)CC(=O)O3)[C@H]21 [Lovastatin, reference compound]
Proportion of stained region (fatty streak region) per unit area of the main artery [1]: 18.2 ± 10.4^b %
Proportion of the fatty streak region compared to the control group [1]: significantly reduced
Arterial endothelium, macrophage-lipid complex / atherosclerotic plaque (photographs) [1]: clean
